The text below walks through data of US5607691A, “Compositions and methods for enhanced drug delivery” (priority 1995, dated 1997).

The data set in a line: in vitro. The class given is in vitro ADME, human. An excerpt:
Table 4 lists the serum half-lives for several model compounds and two representative pharmaceutical agent-chemical modifier complexes using an in vitro assay system described in the Experimental section below. Of course, the serum half-lives will vary in vivo depending upon the age and health condition of the patient. Each complex comprises a model compound or a pharmaceutical agent, a spacer group, and a chemical modifier. Many of the model compounds utilize 4-nitrophenyl(ethanol, propanol, or cyclohexanol) or 4-nitrophenylethylamine as the "model" pharmaceutical agent. A more complete listing of serum half-lives may be found in the Experimental section below.
General procedure for serum hydrolysis of pharmaceutical agent-modifier complexes
Stock solutions (6 mM) of the pharmaceutical agent-modifier complexes were prepared in ethanol (by vortexing, sonication or warming at 37° C. if necessary). If required for solubility, a drop of dimethylsulfoxide, dimethylformamide or methanol may be added. (Acetonitrile cannot be used because it deactivates the serum enzymes.)
HPLC separation methods were established for each study by dilution of the above stock solution (6 μl) in acetonitrile (1 ml) to give a 36 μM solution. Samples (10 μl) were injected onto a Nucleosil 5C8 (250×4 mmID) and guard column (11×4 mm ID) and eluted with a mobile phase of approximately 65% HPLC grade water and 35% of a solution of 0.1% trifluoroacetic acid in acetonitrile, the exact proportions being adjusted in each case to give optimum separation and run times.
Freshly defrosted human serum (3 ml, Sigma) was warmed at 37° C. for five minutes and then 60 μl of the agent-modifier complex stock solution was added with vortexing. […] The aliquots were added to 800 μl of 2% zinc sulfate solution in a 1.5 ml disposable microcentrifuge tube, vortexed immediately and centrifuged at 14,000 RPM for 3 minutes. The supernatants (10 μl) were then injected onto the HPLC and peak areas were used to determine the % remaining. Serum blanks were prepared similarly by addition of serum to the zinc sulfate solution followed by centrifugation, and time=0 samples were also prepared by adding serum to the zinc sulfate solution followed by addition of the complex and separation by centrifugation. The time=0 samples, as well as the original stock solutions, were also used to study the stability of the complex in the absence of enzyme. Half-lives were calculated using the equation
by plotting time (x) vs. ln % remaining (y) to obtain the slope (m) and the y intercept (b).

Where [1] appears, read: human, serum, Table 5, human serum, 37° C., read-out: Serum Half-life (converted).
The mark [2] stands for this setting: human, serum, Table 4, human serum, 37° C., read-out: In vitro Half-Life (converted).
Where [3] appears, read: human, serum, Table 4, read-out: serum half-life (converted).

What is called half-life is the time in which the quantity being followed falls by half.

Counter-ions that a name gives are not always drawn. Like-named read-outs stand apart in the source and are kept apart here.

For “2-(4-nitrophenyl)ethylamine choline chloride carbamate”, under “human, serum”, the “In vitro Half-Life” value is 86 h and the “Serum Half-life” value stood at 86 h.

In the case of `COC(=O)CC(CN(C)C)OC(=O)Cc1c(C)n(C(=O)c2ccc(Cl)cc2)c2ccc(OC)cc12` (racemic) [3-O-(indomethacinoyl)-D,L-norcarnitine methyl ester], the “Serum Half-life” value (Table 5, human serum, 37° C., listed as O-indomethacinyl-(D,L-norcarnitine methyl ester)) came out at 4.3 h. Further, under setting [1], the half-life was 257 min.

As for `COC(=O)CC(C[N+](C)(C)C)OC(=O)Cc1c(C)n(C(=O)c2ccc(Cl)cc2)c2ccc(OC)cc12` (racemic) [O-indomethacinyl-(D,L-carnitine methyl ester), iodide salt], under setting [1], the half-life was 660 min.

As for `COc1cc(NC(=O)OCC[N+](C)(C)C)c(Cl)cc1C(=O)N[C@H]1CCN(CCCOc2ccc(F)cc2)C[C@H]1OC` (relative stereo) [cisapride choline carbamate, chloride salt], the half-life under setting [1] was 150 min.

`COc1cc(NC(=O)c2ccc[n+](C)c2)c(Cl)cc1C(=O)N[C@H]1CCN(CCCOc2ccc(F)cc2)C[C@H]1OC` (relative stereo) [cisapride-(N-(1-methylpyridinium-3-carboxamide), chloride salt]: under setting [1], the half-life is 60 min.

Consider `COc1cc(N)c(Cl)cc1C(=O)N[C@H]1CC[N+](CCCOc2ccc(F)cc2)(COC(=O)CCCCC[N+](C)(C)C)C[C@H]1OC` (relative stereo) [cisapride-N-(6-trimethylammoniohexanoyloxymethylammonio), diiodide salt], for which the half-life under setting [1] is 60 min.

As to `COc1cc(N)c(Cl)cc1C(=O)N[C@H]1CC[N+](CCCOc2ccc(F)cc2)(COC(C)=O)C[C@H]1OC` (relative stereo) [cisapride-N-acetoxymethylammonio, iodide salt], the half-life under setting [1] was 6.5 min.

Regarding `CCCC(=O)OC[N+]1(CCCOc2ccc(F)cc2)CC[C@H](NC(=O)c2cc(Cl)c(N)cc2OC)[C@H](OC)C1` (relative stereo) [cisapride-N-butyroyloxymethylammonio, iodide salt], the half-life under setting [1] was 7.6 min.

`CCOC(=O)OC[N+]1(CCCOc2ccc(F)cc2)CC[C@H](NC(=O)c2cc(Cl)c(N)cc2OC)[C@H](OC)C1` (relative stereo) [cisapride-N-ethyoxycarbonyloxymethylammonio, iodide salt]: the half-life under setting [1] is 4.4 min.

For the compound `CCCCCCCCCCCC(=O)OC[N+]1(CCCOc2ccc(F)cc2)CC[C@H](NC(=O)c2cc(Cl)c(N)cc2OC)[C@H](OC)C1` (relative stereo) [cisapride-N-lauroyloxymethylammonio, iodide salt], under setting [1], the half-life was 5.4 min.

Take `CC(=O)O[C@H](CC(=O)NCCCCCC(=O)OC(C)Cc1ccc([N+](=O)[O-])cc1)C[N+](C)(C)C` (stereo partly drawn) [1-(4-nitrophenyl)-2-propanol 6-(O-acetyl-L-carnitinamido)hexanoate ester]: the half-life is 21.4 min under setting [2], 21.4 min under setting [3] and 21.4 min under setting [1].

Regarding `CC(=O)O[C@H](CC(=O)NCCCCCCOC(=O)OC(C)Cc1ccc([N+](=O)[O-])cc1)C[N+](C)(C)C` (stereo partly drawn) [1-(4-nitrophenyl)-2-propanol 6-(O-acetyl-L-carnitinamido)hexanol carbonate, chloride salt], the half-life runs as follows: under setting [2], 3.5 min; under setting [1], 3.5 min.

For the compound `CC(=O)O[C@H](CC(=O)NCCCCCC(=O)OCCc1ccc([N+](=O)[O-])cc1)C[N+](C)(C)C` [2-(4-Nitrophenyl)ethanol 6-(O-acetyl-L-carnitinamido)hexanoate ester, chloride salt], the half-life runs as follows: under setting [2], 0.132 min; under setting [3], 0.132 min; under setting [1], 0.132 min.

`O=C(OCCc1ccc([N+](=O)[O-])cc1)c1ccc(N2CCOCC2)cc1` [2-(4-nitrophenyl)ethanol 4-morpholino benzoate]: where the note is “human, serum”, the “In vitro Half-Life” value turned out to be 0.0127 h.

In the case of `O=C(OCCc1ccc([N+](=O)[O-])cc1)c1ccc(CN2CCOCC2)cc1` [2-(4-nitrophenyl)ethanol 4-morpholinomethyl-benzoate], the half-life under setting [1] was 0.762 min.

Take `O=C(CCCCCN1CCOCC1)OCCc1ccc([N+](=O)[O-])cc1` [2-(4-nitrophenyl)ethanol 6-morpholino-hexanoate]: the half-life under setting [2] is 0.463 min and the half-life under setting [1] is 0.463 min.

Regarding `C[N+](C)(C)CCOC(=O)OCCc1ccc([N+](=O)[O-])cc1` [2-(4-nitrophenyl)ethanol choline chloride carbonate ester], the half-life was less than 0.0333 min under setting [2] and less than 0.0333 min under setting [1].

As for `CC(=O)O[C@H](CC(=O)NCCC(=O)OCCc1ccc([N+](=O)[O-])cc1)C[N+](C)(C)C` [2-(4-nitrophenyl)ethyl 3-(O-acetyl-L-carnitinamido)propanoate], the half-life runs as follows: under setting [2], 5.5 min; under setting [3], 5.5 min; under setting [1], 5.5 min.

Turning to `CC(=O)O[C@H](CC(=O)NCCc1ccc([N+](=O)[O-])cc1)C[N+](C)(C)C` [2-(4-nitrophenyl)ethylamine 3-(O-acetyl)-L-carnitine amide, chloride salt], the half-life under setting [2] is 1570 min and the half-life under setting [1] was 1570 min.

Take `C[C@]12CC[C@@H]3c4ccc(OC(=O)OCC[N+](C)(C)C)cc4CC[C@H]3[C@@H]1CC[C@@H]2O` [3,17β-estradiol-3-choline carbonate, iodide salt]: the half-life under setting [1] is 1.53 min.

With `C[C@]12CC[C@@H]3c4ccc(O)cc4CC[C@H]3[C@@H]1CC[C@@H]2OC(=O)C[N+](C)(C)C` [3,17β-estradiol-17β-betaine ester, chloride salt], the half-life under setting [1] was 270 min.

For `C[C@]12CC[C@@H]3c4ccc(O)cc4CC[C@H]3[C@@H]1CC[C@@H]2OC(=O)OCC[N+](C)(C)C` [3-hydroxy-17β-estra-trienyl N,N,N-trimethylaminoethyl carbonate, iodide salt], under setting [1], the half-life was 16 min.

Take `CC(=O)O[C@H](CC(=O)OCCCCCCOC(=O)O[C@H]1CC[C@H]2[C@@H]3CCc4cc(O)ccc4[C@H]3CC[C@]12C)C[N+](C)(C)C` [3-hydroxy-estra-1,3,5-trien-17β-yl 6-(O-acetyl-L-carnitinato)hexyl carbonate, chloride salt]: the half-life under setting [2] was 240 min.

On to `C[N+](C)(C)CCOC(=O)OC1CCC(c2ccc([N+](=O)[O-])cc2)CC1` (stereo not shown) [4-(4-nitrophenyl)cyclohexanol choline carbonate ester, iodide salt], for which the half-life is, setting by setting: under setting [2], 0.327 min; under setting [1], 0.327 min.

For `CCCC(=O)OCn1c(=O)c(F)cn(C(C)OC(=O)CCC[N+](C)(C)C)c1=O.[I-]` (stereo not shown) [5-fluorouracil-1-(4-trimethylammoniobutyroyl-1-oxyethyl)-3-(butyroyloxymethyl), iodide salt], the “Serum Half-life” value (Table 5, human serum, 37° C.) was found to be 0.162 h.

For `CCCC(=O)OCn1c(=O)c(F)cn(COC(=O)CCC[N+](C)(C)C)c1=O` [5-fluorouracil-1-(4-trimethylammoniobutyroyloxymethyl)-3-(butyroyloxymethyl), iodide salt], the half-life under setting [1] was 204 min.

Regarding `CCCCCCCCCCCC(=O)OCn1c(=O)c(F)cn(C(C)OC(=O)CCC[N+](C)(C)C)c1=O.[I-]` (stereo not shown) [5-fluorouracil-1-(N-(4-trimethylammoniobutyroyloxy-1-ethyl)-3-(N-lauroyloxymethyl), iodide salt], the “Serum Half-life” value (Table 5, human serum, 37° C.) amounted to 0.217 h.

On to `CCCCCCCCCCCC(=O)OCn1c(=O)c(F)cn(COC(=O)CCC[N+](C)(C)C)c1=O` [5-fluorouracil-1-(N-(4-trimethylammoniobutyroyloxymethyl)-3-(N-lauroxyoxymethyl), iodide salt], for which the half-life under setting [1] is 192 min.

Take `CCCCCCCCCCCC(=O)OCn1cc(F)c(=O)[nH]c1=O` [5-fluorouracil-1-(lauroyloxmethyl)]: the half-life under setting [1] was 3.23 min.

Take `CCCCCCCCCCCC(=O)OCn1cc(F)c(=O)n(COC(=O)CCC[N+](C)(C)C)c1=O` [5-fluorouracil-1-(lauroyloxymethyl)-3-(4-trimethylammoniobutyroxyoxymethyl), iodide salt]: the half-life under setting [1] is 420 min.

For the compound `CCCCCCCCCCCC(=O)OCn1cc(F)c(=O)n(COC(=O)OCC[N+](C)(C)C)c1=O` [5-fluorouracil-1-(lauroyloxymethyl)-3-(cholinecarbonyloxymethyl), iodide salt], the half-life under setting [1] is 27 min.

Consider `CC(=O)O[C@H](CC(=O)Oc1ccc2c(c1)CC[C@@H]1[C@@H]2CC[C@]2(C)[C@@H](O)CC[C@@H]12)C[N+](C)(C)C` [17β-estradiol-3-(O-acetyl-L-carnitine) ester], for which the half-life under setting [1] is 8 min.

As for `CC(=O)O[C@H](CC(=O)O[C@H]1CC[C@H]2[C@@H]3CCc4cc(O)ccc4[C@H]3CC[C@]12C)C[N+](C)(C)C` [17β-estradiol-17β-(O-acetyl-L-carnitine) ester], the half-life under setting [1] is 240 min.
